From US8394971B2, “Indole derivatives as selective androgen receptor modulators (SARMS)” (Janssen Pharmaceutica N.V., priority 2004, dated 2013) come the findings set out here.

Assay [1] concerns the target T1, androgen receptor (adenovirus AdEasy+rAR in COS-7 cells) (Rattus norvegicus, UniProt P15207).
T1 construct: expressed in transfected cells
T1 sequence (P15207 1-902): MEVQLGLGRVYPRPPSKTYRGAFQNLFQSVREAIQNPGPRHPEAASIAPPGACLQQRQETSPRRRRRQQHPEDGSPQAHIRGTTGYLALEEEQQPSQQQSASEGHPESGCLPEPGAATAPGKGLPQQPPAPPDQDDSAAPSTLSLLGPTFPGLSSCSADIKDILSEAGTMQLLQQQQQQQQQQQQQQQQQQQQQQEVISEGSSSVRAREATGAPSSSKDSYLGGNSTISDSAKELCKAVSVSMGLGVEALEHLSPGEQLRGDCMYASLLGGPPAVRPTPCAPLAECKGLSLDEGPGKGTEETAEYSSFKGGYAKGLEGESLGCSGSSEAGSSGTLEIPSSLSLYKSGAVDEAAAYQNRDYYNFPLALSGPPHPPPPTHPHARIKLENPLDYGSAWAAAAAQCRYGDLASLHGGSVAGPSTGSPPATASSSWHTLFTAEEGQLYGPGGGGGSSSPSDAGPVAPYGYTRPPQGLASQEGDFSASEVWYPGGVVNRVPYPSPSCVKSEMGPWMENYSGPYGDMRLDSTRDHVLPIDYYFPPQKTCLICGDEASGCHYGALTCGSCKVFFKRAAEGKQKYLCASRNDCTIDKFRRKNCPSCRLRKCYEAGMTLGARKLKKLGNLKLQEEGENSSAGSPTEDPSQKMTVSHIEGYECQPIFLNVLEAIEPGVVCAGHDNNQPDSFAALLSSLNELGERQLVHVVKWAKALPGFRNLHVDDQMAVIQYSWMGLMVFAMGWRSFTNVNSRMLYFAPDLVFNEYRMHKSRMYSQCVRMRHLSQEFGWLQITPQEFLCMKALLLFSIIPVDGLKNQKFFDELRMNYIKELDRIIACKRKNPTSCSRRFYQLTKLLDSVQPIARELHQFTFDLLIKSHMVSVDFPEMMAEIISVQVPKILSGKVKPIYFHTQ
The experiment in a line: COS-7 Whole-Cell Androgen Receptor Binding Assay, Adenovirus Transduction. The conditions noted are these: COS binding; 3000 nM unless otherwise noted. The method, then:
COS-7 cells were plated in 96-well plates at 20,000 cells per well, in a solution of DMEM/F12 (GIBCO) containing 10% (v/v) charcoal-treated fetal bovine serum (Hyclone) and lacking phenol red. The cells were then incubated overnight at 37° C. in 5% (v/v) humidified CO2.
Test compound solutions were prepared by diluting the test compound in 100% (v/v) DMSO, if necessary.
Next, 1 mL of DMEM/F12 lacking phenol red was pipetted into each of the wells of a 2-mL 96-well assay block. […] The wells were carefully mixed by pipette.
In a 15 mL or 50 mL sterile centrifuge tube, a dilution in DMEM/F12 of the adenovirus AdEasy+rAR at a moi of 1:50 per well was prepared.
The medium was removed from the 96-well plates by inversion and the plates dried very briefly, inverted, on a sterile towel. As soon as possible after medium removal, 40 μL of the diluted test compound was added to each well, in duplicate. […] The plates were then incubated for 48 hours at 37° C. in 5% (v/v) humidified CO2.
The medium was removed from the above incubated plates by inversion and dried. Each well was then washed with 0.35 mL of 1×PBS. The PBS was then removed from the plates by inversion and the plates dried.
To each well was then added 50 μL of 0.5% (v/v) Triton X-100 (Sigma) in 1×PBS and the plates placed on a rotary shaker for 5 min. The contents of each well were then transferred to an OptiPlate-96 (Packard) scintillation plate. To each well was then added 0.2 mL of Microscint-20 (Packard) and the wells counted on a TopCount (Packard).
[…] Counts per well were measured and percents of inhibition determined. […] Counts per well were measured and IC50s determined by linear regression.

Assay [2] concerns testosterone-enhanced ventral prostate and seminal vesicle weights in castrated male Sprague Dawley rats. Kind of assay: Ventral Prostate and Seminal Vesicle Weight In Vivo Assay. Also noted: species or system rat. To be noted: immature castrated rats; once daily for five days, usually orally at 40 mg/kg, with testosterone propionate 2 mg/kg s.c. The gist of the method:
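Immature (~50 g) castrated Sprague Dawley rats dosed once daily for five days with compound (usually oral, 40 mg/kg, cyclodextrin or methylcellulose vehicle) plus testosterone propionate 2 mg/kg s.c. Wet ventral prostate and seminal vesicle weights taken on day six; activity judged by prostate weight or body-weight-adjusted % inhibition.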

The target of assay [3] is T2, androgen receptor (adenovirus AdEasy+rAR in L929 cells) (Rattus norvegicus, UniProt P15207).
T2 construct: expressed in transfected cells
T2 sequence (P15207 1-902): T1 sequence (P15207 1-902)
The experiment in a line: L929 Androgen Receptor Functional Assay, Adenovirus Transduction. Type of assay: cell-based. The conditions noted are these: for % Activity: L929 agonist testing. As for the experimental part:
L929 cells were plated in 96-well plates at 20,000 cells per well, in DMEM/F12 (GIBCO) containing 10% (v/v) charcoal-treated fetal bovine serum (Hyclone) and lacking phenol red. The plates were then incubated overnight at 37° C. in 5% (v/v) humidified CO2.
Test compound dilutions were prepared in 100% (v/v) DMSO, if necessary. Each dilution was made to 1250× the final desired assay concentration.
First, 2 mL of DMEM/F12 lacking phenol red was pipetted into the wells of a 2-mL 96-well assay block. Next, 4 μL of the 1250× test compound dilutions were pipetted into each well of the assay block. The mixtures within the well were then carefully mixed by pipette.
In a 15 mL or 50 mL sterile centrifuge tube, a 2.5 nM (2.5×) dilution of R1881 (methyl-trienolone) in DMEM/F12 lacking phenol red was prepared.
In a second 15 mL or 50 mL centrifuge tube a solution containing an equal volume of DMEM to the first and an equal volume of 100% (v/v) DMSO to the volume of R1881 used in the first tube was prepared.
In a 15 mL or 50 mL sterile centrifuge tube, a dilution in DMEM/F12 of the adenovirus AdEasy+rAR at an moi of 1:500 per well was prepared.
The medium was removed from the 96-well plates by inversion and dried, inverted, very briefly. As soon as possible after medium removal, 40 μL of the diluted unlabeled test compound was added to each well, in duplicate. To each well designated for antagonist testing was added 40 μL of the 2.5 nM R1881 dilution to the wells for antagonist testing. To each well designated for agonist testing was added 40 μL of the DMSO dilution. Then 20 μL of the diluted adenovirus were added to all wells. The plates were incubated for 48 hours at 37° C. in 5% (v/v) humidified CO2.
To each well was added 100 μL of Steady-Glo luciferase assay substrate (Promega) and the plates were placed on a rotary shaker for 1 min. The plates were then incubated at room temperature in the dark for one hour. The contents of each well were then transferred to a white microtiter plate (Packard) and read on a Luminoskan Ascent (Thermo Lab Systems).
L929 AR percent activity was determined by testing dilutions of the test compound using a concentration of 3000 nM unless otherwise noted. L929 percent inhibition was determined by testing dilutions of the test compound using a concentration of 3000 nM. […] Luciferase activity per well were measured and EC50s and IC50s determined by linear regression.

Several values for one entry are separate records, joined by “and”; a condition that tells them apart may be missing. Equal values may be shown once.

Consider `CCSCC(C)(O)c1[nH]c2cc(C(F)(F)F)c(C#N)cc2c1C` (single isomer, unassigned) [Compound #233, 2-(2-Ethylsulfanyl-1-hydroxy-1-methyl-ethyl)-3-methyl-6-trifluoromethyl-1H-indole-5-carbonitrile], for which the “% Inhibition” value in assay [1] is 95% and 81%. Moreover, the “active / inactive (inhibition of testosterone-enhanced prostate weight)” value in assay [2] is reported as “active”. The “% Activity” value in assay [3] (3000 nM, 3 µM) was determined as 0%.
In the case of `CCSCC(C)(O)c1[nH]c2cc(C(F)(F)F)c(C#N)cc2c1C` (single isomer, unassigned) [Compound #234, 2-(2-Ethylsulfanyl-1-hydroxy-1-methyl-ethyl)-3-methyl-6-trifluoromethyl-1H-indole-5-carbonitrile], the “% Inhibition” value in assay [1] stood at 71%. The “active / inactive (inhibition of testosterone-enhanced prostate weight)” value in assay [2] was “inactive”. In addition, the “% Activity” value in assay [3] (3000 nM, 3 µM) is reported as −1%.
Regarding `CCS(=O)(=O)CC(C)(O)c1[nH]c2cc(C(F)(F)F)c(C#N)cc2c1C` (single isomer, unassigned) [Compound #251, 2-(2-Ethanesulfonyl-1-hydroxy-1-methyl-ethyl)-3-methyl-6-trifluoromethyl-1H-indole-5-carbonitrile], the “% Inhibition” value in assay [1] is 85%. Also, the “active / inactive (inhibition of testosterone-enhanced prostate weight)” value in assay [2] was “active”. Testing at 3 µM in assay [3] (L929, L929 antagonist testing with R1881, 3000 nM) gave an inhibition of 90%. For the same compound, the “% Activity” value in assay [3] (3000 nM) is listed as −1%.
In the case of `CC(O)(CSCC(F)(F)F)c1cc2cc([N+](=O)[O-])c(C(F)(F)F)cc2[nH]1` (single isomer, unassigned) [compound 202], the “% Inhibition” value in assay [1] came out at 50%. Besides, in assay [2], the “active / inactive (inhibition of testosterone-enhanced prostate weight)” value is “active”. Besides, in assay [3] (3000 nM, 3 µM), the “% Activity” value turned out to be 1%.
For `CCSCC(C)(O)c1cc2cc([N+](=O)[O-])c(C(F)(F)F)cc2n1C` (single isomer, unassigned) [compound 231], in assay [1], the “% Inhibition” value is 78% and the inhibition at 3 µM came out at 73%. Moreover, the “active / inactive (inhibition of testosterone-enhanced prostate weight)” value in assay [2] was “active”. For the same compound, in assay [3] (3000 nM, 3 µM), the “% Activity” value was 0% and −1%.
Compound `CC[S+]([O-])C[C@](C)(O)c1cc2cc([N+](=O)[O-])c(C(F)(F)F)cc2[nH]1` (stereo in doubt) [Compound #155, 1-Ethanesulfinyl-2-(5-nitro-6-trifluoromethyl-1H-indol-2-yl)-propan-2-ol] returned an inhibition at 3 µM in assay [1] of 35%. For the same compound, the “active / inactive (inhibition of testosterone-enhanced prostate weight)” value in assay [2] was “inactive”. The “% Activity” value in assay [3] (3000 nM) was 2%.
On to `CCS(=O)(=O)C[C@](C)(O)c1cc2cc([N+](=O)[O-])c(C(F)(F)F)cc2[nH]1` [Compound #156, 1-Ethanesulfonyl-2-(5-nitro-6-trifluoromethyl-1H-indol-2-yl)-propan-2-ol], for which, in assay [1], the “% Inhibition” value amounted to 52% and testing at 3 µM gave an inhibition of 42%. The “active / inactive (inhibition of testosterone-enhanced prostate weight)” value in assay [2] is “inactive”. Also, in assay [3] (3000 nM), the “% Activity” value came out at 2%.
In assay [1], `CC(O)(CCS(C)(=O)=O)c1cc2cc([N+](=O)[O-])c(C(F)(F)F)cc2[nH]1` (stereo not shown) [compound 49] returned an inhibition at 3 µM of 30%. Further, the “active / inactive (inhibition of testosterone-enhanced prostate weight)” value in assay [2] was “inactive”. Also, the “% Activity” value in assay [3] (3000 nM) came to 2%.
The like results for `CC(O)(CSc1ccc(N)cc1)c1cc2cc(Cl)c(C(F)(F)F)cc2[nH]1` (stereo not shown) [compound 104] were, in that order, 94%, “inactive” and 9%.
As for `CC(O)(CS(=O)(=O)c1ccc(N)cc1)c1cc2cc(Cl)c(C(F)(F)F)cc2[nH]1` (stereo not shown) [compound 118], the inhibition at 3 µM in assay [1] came to 62%. In addition, the “active / inactive (inhibition of testosterone-enhanced prostate weight)” value in assay [2] was “inactive”. The “% Activity” value in assay [3] (@ 8000 nM) is −2 @ 8000 nM %.
As to `CN(C)c1ccccc1SCC(C)(O)c1cc2cc(Cl)c(C(F)(F)F)cc2[nH]1` (stereo not shown) [compound 127], in assay [1], the “% Inhibition” value was 41% and 74%. Also, the “active / inactive (inhibition of testosterone-enhanced prostate weight)” value in assay [2] was “inactive”. In assay [3] (3000 nM), the “% Activity” value is recorded as −5%.
`COc1ccc(SCC(C)(O)c2cc3cc(Cl)c(C(F)(F)F)cc3[nH]2)cc1` (stereo not shown) [compound 131] yielded an inhibition at 3 µM in assay [1] of 84%. The “active / inactive (inhibition of testosterone-enhanced prostate weight)” value in assay [2] is “inactive”. In assay [3] (3000 nM), the “% Activity” value was −5%.
The like results for `CSCC(C)(O)c1cc2cc(Cl)c(C(F)(F)F)cc2[nH]1` (stereo not shown) [compound 135] were, in that order, 98%, “inactive” and 0%.
For `CSCC(C)(O)c1cc2cc(C#N)c(C(F)(F)F)cc2[nH]1` (stereo not shown) [compound 136], in that order: 4.8%, “active” and 0%.
Consider `CC(O)(CS(C)(=O)=O)c1cc2cc(Cl)c(C(F)(F)F)cc2[nH]1` (stereo not shown) [compound 138], for which the inhibition at 3 µM in assay [1] worked out at 78%. Further, the “active / inactive (inhibition of testosterone-enhanced prostate weight)” value in assay [2] was “inactive”. The “% Activity” value in assay [3] (3000 nM) amounted to 0%.
Regarding `CSCC(C)(O)c1cc2cc([N+](=O)[O-])c(C(F)(F)F)cc2[nH]1` (stereo not shown) [compound 139], in assay [1], the “% Inhibition” value was determined as 97% and at 3 µM the inhibition was 94%. Besides, in assay [2], the “active / inactive (inhibition of testosterone-enhanced prostate weight)” value is on record as “active”. For the same compound, the “% Activity” value in assay [3] (3000 nM, 3 µM) is 0% and 1%.
